In this assay the target is full-length human ATR protein (Homo sapiens (Human), UniProt Q13535). The experiment in a line: Binding assay ATR (TR-FRET tracer displacement). To be noted: TR-FRET. An excerpt:
To determine of binding activity of the test compounds, full-length human ATR protein was expressed and purified together with ATRIP as described above. Furthermore, a fluorescently labelled compound (either tracer A or B as described above) was used as a tracer molecule. Detection of the binding event of the tracer was achieved by time-resolved fluorescence energy transfer (TR-FRET). We used an anti-GST-Terbium antibody (CisBio) that binds to the GST-tag at the N-terminus of ATR-kinase. […] Displacement of the fluorescent tracer by a test compound leads to a reduction of the TR-FRET-signal.
For the assay 50 nl of a 100-fold concentrated solution of the test compound in DMSO was pipetted into a black low volume 384well microtiter plate (MTP, Greiner Bio-One, Frickenhausen, Germany). […] The ATR-working solution was incubated for 30 min at 22° C. prior to dispensing to pre-form the complex of antiGST-Tb+GST-ATR+ATRIP. Then, 3 μl of the ATR-working solution were added to the test compound and the mixture was incubated for 10 min at 22° C. to allow pre-binding of the test compounds to ATR/ATRIP. Then, 2 μl of a 100 nM solution of either tracer A or B in assay buffer were added to the ATR-working solution. The resulting mixture was incubated for 30 min at 22° C. […] The dilution series were prepared separately before the assay on the level of the 100 fold concentrated solutions in DMSO by serial 1:3.4 dilutions in duplicate values for each concentration. IC50 values were calculated by a 4 parameter fit using standard software (GraphPad prism or equivalent).
(TR-FRET usually uses a lanthanide donor and a delayed reading to cut background.)

[1] abbreviates: tracer A, read-out: ATR binding (tracer A) IC50.
[2] abbreviates: tracer B, read-out: ATR binding (tracer B) IC50.

Among the data in patent US9549932B2, “2-(morpholin-4-yl)-1,7-naphthyridines” (BAYER PHARMA AKTIENGESELLSCHAFT, priority 2014, dated 2017) are IC50 values, retold here.

Where two headings read alike, the source gives them in different places.

Sequence of full-length human ATR protein (Q13535 other isoform, or with tags, fused parts or gaps): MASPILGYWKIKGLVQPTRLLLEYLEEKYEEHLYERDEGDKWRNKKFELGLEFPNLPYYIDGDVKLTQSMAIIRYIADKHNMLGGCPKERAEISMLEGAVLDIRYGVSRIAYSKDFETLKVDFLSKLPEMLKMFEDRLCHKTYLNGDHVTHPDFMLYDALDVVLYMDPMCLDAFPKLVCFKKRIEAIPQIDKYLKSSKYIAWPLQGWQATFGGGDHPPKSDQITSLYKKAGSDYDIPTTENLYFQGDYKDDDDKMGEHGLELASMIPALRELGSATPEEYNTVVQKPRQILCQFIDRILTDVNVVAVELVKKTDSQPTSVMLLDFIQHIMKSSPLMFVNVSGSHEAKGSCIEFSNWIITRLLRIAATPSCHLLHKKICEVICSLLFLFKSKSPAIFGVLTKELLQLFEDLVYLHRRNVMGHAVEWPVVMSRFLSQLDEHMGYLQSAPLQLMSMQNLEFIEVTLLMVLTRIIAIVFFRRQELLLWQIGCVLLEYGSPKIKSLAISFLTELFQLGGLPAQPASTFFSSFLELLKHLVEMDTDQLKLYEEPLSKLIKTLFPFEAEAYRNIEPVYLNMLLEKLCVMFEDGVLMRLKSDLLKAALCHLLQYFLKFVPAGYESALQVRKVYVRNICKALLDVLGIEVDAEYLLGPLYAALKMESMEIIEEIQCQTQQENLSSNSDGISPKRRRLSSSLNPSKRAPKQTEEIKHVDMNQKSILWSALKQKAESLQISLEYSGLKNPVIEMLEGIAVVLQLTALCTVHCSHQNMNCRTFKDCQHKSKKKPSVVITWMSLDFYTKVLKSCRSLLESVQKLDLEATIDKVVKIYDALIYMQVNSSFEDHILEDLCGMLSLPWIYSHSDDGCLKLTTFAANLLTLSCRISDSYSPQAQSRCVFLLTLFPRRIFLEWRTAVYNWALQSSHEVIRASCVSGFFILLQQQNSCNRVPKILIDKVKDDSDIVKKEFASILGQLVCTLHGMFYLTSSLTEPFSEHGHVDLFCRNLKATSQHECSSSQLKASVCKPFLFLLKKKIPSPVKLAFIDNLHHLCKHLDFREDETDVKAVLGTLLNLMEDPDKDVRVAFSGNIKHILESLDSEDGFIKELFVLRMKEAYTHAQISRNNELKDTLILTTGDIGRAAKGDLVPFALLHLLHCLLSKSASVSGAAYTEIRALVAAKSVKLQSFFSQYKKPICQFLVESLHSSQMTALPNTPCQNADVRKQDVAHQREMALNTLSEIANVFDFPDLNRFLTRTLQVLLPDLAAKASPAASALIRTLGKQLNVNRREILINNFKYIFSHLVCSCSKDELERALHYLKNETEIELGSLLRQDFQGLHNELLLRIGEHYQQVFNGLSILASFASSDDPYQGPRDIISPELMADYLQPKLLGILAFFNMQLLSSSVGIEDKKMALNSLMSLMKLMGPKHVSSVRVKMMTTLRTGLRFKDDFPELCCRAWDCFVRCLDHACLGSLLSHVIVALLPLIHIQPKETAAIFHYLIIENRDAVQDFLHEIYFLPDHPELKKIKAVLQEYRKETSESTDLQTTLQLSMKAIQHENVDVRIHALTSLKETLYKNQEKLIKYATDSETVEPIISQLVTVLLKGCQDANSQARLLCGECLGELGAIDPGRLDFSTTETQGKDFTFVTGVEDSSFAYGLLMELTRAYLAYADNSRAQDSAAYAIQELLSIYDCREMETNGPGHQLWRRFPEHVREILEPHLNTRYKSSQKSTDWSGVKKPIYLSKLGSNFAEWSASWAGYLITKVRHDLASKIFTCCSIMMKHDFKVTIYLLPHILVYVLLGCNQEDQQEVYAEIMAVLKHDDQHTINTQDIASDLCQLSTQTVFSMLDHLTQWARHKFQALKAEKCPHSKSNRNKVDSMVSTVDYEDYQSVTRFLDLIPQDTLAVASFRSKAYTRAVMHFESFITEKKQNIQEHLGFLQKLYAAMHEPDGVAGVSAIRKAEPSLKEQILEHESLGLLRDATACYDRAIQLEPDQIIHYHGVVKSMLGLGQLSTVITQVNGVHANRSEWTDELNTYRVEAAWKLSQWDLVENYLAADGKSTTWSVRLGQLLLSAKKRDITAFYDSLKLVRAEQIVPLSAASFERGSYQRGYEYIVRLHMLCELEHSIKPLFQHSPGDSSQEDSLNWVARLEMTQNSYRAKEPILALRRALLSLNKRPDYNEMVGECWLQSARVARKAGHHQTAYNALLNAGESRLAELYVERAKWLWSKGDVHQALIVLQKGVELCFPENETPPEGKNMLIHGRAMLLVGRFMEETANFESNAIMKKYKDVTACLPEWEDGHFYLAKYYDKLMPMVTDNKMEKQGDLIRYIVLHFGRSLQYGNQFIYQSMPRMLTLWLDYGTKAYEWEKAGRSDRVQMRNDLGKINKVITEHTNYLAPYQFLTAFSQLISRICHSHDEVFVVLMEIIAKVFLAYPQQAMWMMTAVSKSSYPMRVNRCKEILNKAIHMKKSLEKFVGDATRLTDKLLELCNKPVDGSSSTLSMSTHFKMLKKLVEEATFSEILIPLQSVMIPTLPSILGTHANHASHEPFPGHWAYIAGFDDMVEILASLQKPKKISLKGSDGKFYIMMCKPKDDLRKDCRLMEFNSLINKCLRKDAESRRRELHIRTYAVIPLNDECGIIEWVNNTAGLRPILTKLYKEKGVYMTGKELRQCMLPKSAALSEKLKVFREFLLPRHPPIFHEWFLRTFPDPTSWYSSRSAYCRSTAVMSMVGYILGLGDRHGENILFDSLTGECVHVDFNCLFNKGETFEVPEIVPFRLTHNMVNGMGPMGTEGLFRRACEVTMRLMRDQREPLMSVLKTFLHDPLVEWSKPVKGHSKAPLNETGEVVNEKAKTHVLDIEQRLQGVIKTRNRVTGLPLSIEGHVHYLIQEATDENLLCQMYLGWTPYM
Sequence of full-length human ATR protein (Q8WXE1 other isoform, or with tags, fused parts or gaps partner): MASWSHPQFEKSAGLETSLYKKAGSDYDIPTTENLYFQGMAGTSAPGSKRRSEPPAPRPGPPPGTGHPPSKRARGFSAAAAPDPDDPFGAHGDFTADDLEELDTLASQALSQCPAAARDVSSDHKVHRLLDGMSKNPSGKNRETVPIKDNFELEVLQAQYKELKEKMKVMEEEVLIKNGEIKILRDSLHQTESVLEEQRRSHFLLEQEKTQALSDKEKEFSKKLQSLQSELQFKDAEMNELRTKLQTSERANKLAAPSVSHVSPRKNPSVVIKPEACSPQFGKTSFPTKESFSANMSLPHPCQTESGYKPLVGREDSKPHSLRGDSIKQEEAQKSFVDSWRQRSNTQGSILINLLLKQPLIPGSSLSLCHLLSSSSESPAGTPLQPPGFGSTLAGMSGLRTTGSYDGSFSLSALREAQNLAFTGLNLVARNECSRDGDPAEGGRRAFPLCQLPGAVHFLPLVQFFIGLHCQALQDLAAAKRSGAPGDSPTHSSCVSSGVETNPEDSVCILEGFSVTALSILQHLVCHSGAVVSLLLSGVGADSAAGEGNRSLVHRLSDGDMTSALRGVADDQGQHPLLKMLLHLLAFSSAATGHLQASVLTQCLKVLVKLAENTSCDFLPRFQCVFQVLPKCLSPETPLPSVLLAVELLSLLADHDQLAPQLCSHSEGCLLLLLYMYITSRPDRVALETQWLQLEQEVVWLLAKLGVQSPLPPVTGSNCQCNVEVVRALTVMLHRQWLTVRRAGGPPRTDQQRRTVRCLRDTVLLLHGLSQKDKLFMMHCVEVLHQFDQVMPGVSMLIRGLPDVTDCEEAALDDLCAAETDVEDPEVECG

As for `CS(=O)(=O)c1nc(-c2cc(N3CCOCC3)nc3c(-c4ccn[nH]4)nccc23)cs1` [Example 21, 4-[2-(methylsulfonyl)-1,3-thiazol-4-yl]-2-(morpholin-4-yl)-8-(1H-pyrazol-5-yl)-1,7-naphthyridine], the half-inhibitory concentration (IC50) under setting [1] was found to be 190 nM. On to `O=c1cc(-c2cc(N3CCOCC3)nc3c(-c4ccn[nH]4)nccc23)cc[nH]1` [Example 22, 4-[2-(morpholin-4-yl)-8-(1H-pyrazol-5-yl)-1,7-naphthyridin-4-yl]pyridin-2(1H)-one], for which the concentration for half-maximal inhibition (IC50) under setting [1] amounted to 465 nM. Same read-out and setting: in the case of `Oc1ccc(-c2cc(N3CCOCC3)nc3c(-c4ccn[nH]4)nccc23)cn1` [Example 23, 5-[2-(morpholin-4-yl)-8-(1H-pyrazol-5-yl)-1,7-naphthyridin-4-yl]pyridin-2(1H)-one] it was 443 nM. On to `CS(=O)(=O)c1ccc(-c2cc(N3CCOCC3)nc3c(-c4ccn[nH]4)nccc23)c(F)c1` [Example 24, 4-[2-fluoro-4-(methylsulfonyl)phenyl]-2-(morpholin-4-yl)-8-(1H-pyrazol-5-yl)-1,7-naphthyridine], for which the IC50 runs as follows: under setting [1], 38.2 nM; under setting [2], 20.7 nM. The like results for `CC(C)S(=N)(=O)c1ccc(-c2cc(N3CCOCC3)nc3c(-c4ccn[nH]4)nccc23)cc1` (stereo not drawn) [Example 25, 2-(morpholin-4-yl)-4-{4-[S-(propan-2-yl)sulfonimidoyl]phenyl}-8-(1H-pyrazol-5-yl)-1,7-naphthyridine] were, in that order, 110 nM and 75.1 nM. In the case of `C[C@@H]1COCCN1c1cc(-c2ccc(S(C)(=O)=O)cc2)c2ccnc(-c3cc[nH]n3)c2n1` [Example 26, 4-(4-methanesulphonylphenyl)-2-((R)-3-methylmorpholin-4-yl)-8-(2H-pyrazol-3-yl)-[1,7]naphthyridine], the IC50 stood at 15.6 nM under setting [1] and 6.36 nM under setting [2].

On to `C[C@@H]1COCCN1c1cc(-c2ccccc2)c2ccnc(-c3cc[nH]n3)c2n1` [Example 27, 2-((R)-3-methylmorpholin-4-yl)-4-phenyl-8-(2H-pyrazol-3-yl)-[1,7]naphthyridine], for which the half-maximal inhibitory concentration (IC50) under setting [1] is 17.2 nM and the IC50 under setting [2] was found to be 10.9 nM. The like results for `C[C@@H]1COCCN1c1cc(-c2cccc(S(C)(=O)=O)c2)c2ccnc(-c3cc[nH]n3)c2n1` [Example 28, 4-(3-methanesulphonylphenyl)-2-((R)-3-methylmorpholin-4-yl)-8-(2H-pyrazol-3-yl)-[1,7]naphthyridine] were, in that order, 17.6 nM and 8.4 nM. The like results for `C[C@@H]1COCCN1c1cc(C2CC2)c2ccnc(-c3cc[nH]n3)c2n1` [Example 29, 4-cyclopropyl-2-((R)-3-methylmorpholin-4-yl)-8-(1H-pyrazol-3-yl)-[1,7]-naphthyridine] were, in that order, 21.5 nM and 9.23 nM. The like results for `C[C@@H]1COCCN1c1cc(-c2ccc(S(C)(=N)=O)cc2)c2ccnc(-c3ccn[nH]3)c2n1` (stereo partly drawn) [Example 30, 4-[2-((R)-3-methylmorpholin-4-yl)-8-(2H-pyrazol-3-yl)-[1,7]naphthyridine-4-yl]phenyl-S-methylsulphoximide] were, in that order, 22.8 nM and 9.48 nM. With `C[C@@H]1COCCN1c1cc(-c2cccc(S(C)(=N)=O)c2)c2ccnc(-c3ccn[nH]3)c2n1` (stereo partly drawn) [Example 31, 3-[2-((R)-3-methylmorpholin-4-yl)-8-(2H-pyrazol-3-yl)-[1,7]naphthyridine-4-yl]phenyl-S-methylsulphoximide], the IC50 is 86.6 nM under setting [1] and 45.1 nM under setting [2]. The like results for `C[C@@H]1COCCN1c1cc(S(C)(=O)=O)c2ccnc(-c3ccn[nH]3)c2n1` [Example 33, 2-[(3R)-3-methylmorpholin-4-yl]-4-(methylsulfonyl)-8-(1H-pyrazol-5-yl)-1,7-naphthyridine] were, in that order, 19.8 nM and 10.3 nM.

Regarding `N#Cc1cc(N2CCOCC2)nc2c(-c3cc[nH]n3)nccc12` [Example 34, 2-(morpholin-4-yl)-8-(1H-pyrazol-3-yl)-[1,7]naphthyridine-4-carbonitrile], the IC50 is, setting by setting: under setting [1], 357 nM; under setting [2], 536 nM. The like results for `C[C@@H]1COCCN1c1cc(C#N)c2ccnc(-c3ccn[nH]3)c2n1` [Example 35, 2-((R)-3-methylmorpholin-4-yl)-8-(-2H-pyrazol-3-yl]-[1,7]naphthyridine-4-carbonitrile] were, in that order, 122 nM and 75.5 nM. For the compound `NC(=O)c1cc(N2CCOCC2)nc2c(-c3cc[nH]n3)nccc12` [Example 36, 2-morpholin-4-yl-8-(1H-pyrazol-3-yl)-[1,7]naphthyridine-4-carboxamide], the IC50 under setting [1] was determined as 1500 nM.

`CS(=O)(=O)Cc1cc(N2CCOCC2)nc2c(-c3ccn[nH]3)nccc12` [Example 37, 4-methanesulphonylmethyl-2-morpholin-4-yl-8-(2H-pyrazol-3-yl)-[1,7]naphthyridine]: the half-inhibitory concentration (IC50) is, setting by setting: under setting [1], 170 nM; under setting [2], 127 nM. The like results for `OCc1cc(N2CCOCC2)nc2c(-c3ccn[nH]3)nccc12` [Example 38, [2-(morpholin-4-yl)-8-(2H-pyrazol-3-yl)-[1,7]naphthyridine-4-yl]methanol] were, in that order, 502 nM and 405 nM. The like results for `CS(=O)(=O)C1(c2cc(N3CCOCC3)nc3c(-c4ccn[nH]4)nccc23)CC1` [Example 39, 4-(1-methanesulphonylcyclopropyl)-2-(morpholin-4-yl)-8-(2H-pyrazol-3-yl)-[1,7]naphthyridine] were, in that order, 60.1 nM and 35.3 nM.

In the case of `CC(C)Oc1cc(N2CCOCC2)nc2c(-c3ccc[nH]3)nccc12` [Example 41, 2-(morpholin-4-yl)-4-(propan-2-yloxy)-8-(1H-pyrrol-2-yl)-1,7-naphthyridine], the IC50 was found to be 339 nM under setting [1] and 230 nM under setting [2]. The like results for `CS(=N)(=O)CCCOc1cc(N2CCOCC2)nc2c(-c3ccn[nH]3)nccc12` (stereo not shown) [Example 42, 4-[3-(S-methylsulfonimidoyl)propoxy]-2-(morpholin-4-yl)-8-(1H-pyrazol-5-yl)-1,7-naphthyridine] were, in that order, 484 nM and 533 nM. The like results for `CCOc1cc(N2CCOCC2)nc2c(-c3cc[nH]n3)nccc12` [Example 43, 4-ethoxy-2-(morpholin-4-yl)-8-(1H-pyrazol-3-yl)-[1,7]naphthyridine] were, in that order, 493 nM and 258 nM. The like results for `COc1cc(N2CCOCC2)nc2c(-c3cc[nH]n3)nccc12` [Example 44, 4-methoxy-2-(morpholin-4-yl)-8-(1H-pyrazol-3-yl)-[1,7]naphthyridine] were, in that order, 543 nM and 327 nM. In the case of `CC(C)(O)COc1cc(N2CCOCC2)nc2c(-c3ccn[nH]3)nccc12` [Example 45, 2-methyl-1-{[2-(morpholin-4-yl)-8-(1H-pyrazol-5-yl)-1,7-naphthyridin-4-yl]oxy}propan-2-ol], under setting [1], the 50% inhibitory concentration (IC50) was found to be 293 nM.

As for `c1cc(-c2nccc3c(OCC4CCCO4)cc(N4CCOCC4)nc23)[nH]n1` (stereo not shown) [Example 46, 2-(morpholin-4-yl)-8-(1H-pyrazol-5-yl)-4-(tetrahydrofuran-2-ylmethoxy)-1,7-naphthyridine], the IC50 under setting [1] was determined as 262 nM. In the case of `O=C1OCCC1Oc1cc(N2CCOCC2)nc2c(-c3ccn[nH]3)nccc12` (stereo not shown) [Example 47, 3-{[2-(morpholin-4-yl)-8-(1H-pyrazol-5-yl)-1,7-naphthyridin-4-yl]oxy}dihydrofuran-2(3H)-one], the IC50 under setting [1] worked out at 1390 nM.

In general, IC50 refers to the concentration that gives 50% inhibition.
